Read-outs that look alike come from different tables or passages of the source. Numbered stars: 1 amine (or outer) side, 2 acyl side, 3 side chain; on linkers, the order of the positions; unused ones are H or OH. Bridge positions count the residues as written; N and C are the ends. Peptide text beside a SMILES is read from it. * marks the point of attachment. C20 diacid = O=C(O)CCCCCCCCCCCCCCCCCCC(=O)*; γGlu = O=C(O)[C@H](CCC(=O)[*:2])N[*:1]
Columns and labels:
rAMY3R = target: T1, rAMY3R (Rattus norvegicus, UniProt P32214+Q9JJ73); assay: scintillation proximity binding assay, rAMY3R membranes; design: expressed in transfected cells; host or cells: BHK tk-ts 13, transient co-transfection (FuGENE 6); conditions: for ratio rCTR/rAMY3R: ratio of binding IC50 values
T1 sequence (P32214 25-479 isoform P32214-2 limits assumed): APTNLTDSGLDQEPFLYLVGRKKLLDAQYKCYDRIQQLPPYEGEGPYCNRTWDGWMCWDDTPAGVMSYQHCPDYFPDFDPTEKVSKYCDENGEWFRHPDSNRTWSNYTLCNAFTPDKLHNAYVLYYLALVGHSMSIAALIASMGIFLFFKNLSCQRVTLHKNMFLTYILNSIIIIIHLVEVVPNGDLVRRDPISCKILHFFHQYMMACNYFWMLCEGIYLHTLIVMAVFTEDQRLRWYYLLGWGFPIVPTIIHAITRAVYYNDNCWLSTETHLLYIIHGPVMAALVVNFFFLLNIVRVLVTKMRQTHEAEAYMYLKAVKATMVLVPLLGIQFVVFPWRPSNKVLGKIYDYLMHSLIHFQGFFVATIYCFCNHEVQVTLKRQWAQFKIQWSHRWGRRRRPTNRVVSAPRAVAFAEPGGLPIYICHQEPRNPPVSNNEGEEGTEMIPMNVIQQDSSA
T1 sequence (Q9JJ73 23-147 partner): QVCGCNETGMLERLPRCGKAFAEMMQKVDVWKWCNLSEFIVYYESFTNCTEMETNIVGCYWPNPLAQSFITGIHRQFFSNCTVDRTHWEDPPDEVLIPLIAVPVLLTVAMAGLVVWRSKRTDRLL
Procedure: (§1) The apparent binding affinities were determined using a scintillation proximity assay with beads from PerkinElmer and cell membranes containing the AMY3R or CTRs. […] Membranes were harvested and membranes were prepared and kept at −80 °C until use. The assay was performed in a 384-well Optiplate (PerkinElmer). Membranes were mixed with scintillation proximity assay beads in a 1:1 ratio. […] Samples were analyzed on a TopCounter (Packard). The IC50 values were calculated using GraphPad Prism. See Supporting Information S7: SAR Screening Assay Methods (Binding Assays (Human and Rat)) for more information.
(§2) Binding Assays (Human and Rat). Brief descriptions of the methods used to determine binding affinities for SAR analysis are described below. Curves and IC50 values were plotted and calculated in GraphPad Prism using nonlinear regression (one site binding competition analysis), with pIC50 values […]
(§3) values were used to calculate the binding affinity ratios in order to express the selectivity of compounds for the AMY3R versus the CTR.
(§4) CTR Binding Assay. The binding assay was performed using scintillation proximity assay (SPA) beads (RPNQ0001) from PerkinElmer and cell membranes containing either the hCTR or rCTR. BHK […]
(§5) Membranes were prepared in the following way: the cells were rinsed with PBS and incubated with Versene for approximately 5 min before harvesting. The cells were flushed with PBS and the cell-suspension was centrifuged for 5 min at 1000 rpm. Cells were homogenized (Ultra Turrax) in a buffer […]
(§6) containing 20 mM Na-HEPES and 0.1 mM EDTA (pH 7.4, buffer 2). The resulting pellet was re-suspended in buffer 2 and protein concentration was measured (BCA protein assay, Pierce). The homogenate was kept cold during the whole procedure. The membranes were stored at –80 °C until […]
(§7) The binding assay was performed in a 384-well Optiplate (PerkinElmer) in a total volume of 40 μL.
(§8) Membranes were mixed with SPA beads in a 1:1 ratio. […]
(§9) mg/well. Test compounds were dissolved in DMSO and further diluted in assay buffer (50 mM HEPES, pH 7.4, 1 mM CaCl2, 5 mM MgCl2, 0.1% ovalbumin, and 0.02% Tween-20).
(§10) Calcitonin (NEX422 PerkinElmer) was dissolved in assay buffer and added to the Optiplate at a final […]
(§11) prior to centrifugation (1500 rpm, 10 min). Samples were analyzed on TopCounter (Packard).
(§12) AMY3R Binding Assay. The binding assay was performed using SPA beads (RPNQ0001) from PerkinElmer and cell membranes containing either the hAMY3R or rAMY3R. BHK tk-ts 13 cells were […]
as §5, with “and cultured as described above. Membranes” for “Membranes”, “buffer containing 20 mM Na-HEPES and 10 mM EDTA (pH 7.4), and” for “buffer”
(§13) The resulting pellet was re-suspended, homogenized, and
(§14) 7.4, buffer 2). The resulting pellet was re-suspended in buffer 2 and protein concentration was measured (BCA protein assay, Pierce). The homogenate was kept cold during the whole procedure.
(§15) The membranes were stored at –80 °C until use.
(§16) Membranes were mixed with SPA beads in a 1:1 ratio. The final concentration of SPA beads was 0.05 mg/well. Test compounds were dissolved in DMSO and further diluted in assay buffer (50 mM […]
(§17) rAMY (NEX448 PerkinElmer) was dissolved in assay buffer and added to the Optiplate at a final

hAMY3R [1] = target: T2, hAMY3R (Homo sapiens, UniProt O60896+P30988); assay: cAMP-responsive element luciferase reporter assay, human AMY3R; format: cell-based; design: expressed in transfected cells; conditions: for EC50: luciferase (human receptor assay); for ratio hCTR/hAMY3R: ratio of luciferase EC50 values
T2 sequence (P30988 25-474): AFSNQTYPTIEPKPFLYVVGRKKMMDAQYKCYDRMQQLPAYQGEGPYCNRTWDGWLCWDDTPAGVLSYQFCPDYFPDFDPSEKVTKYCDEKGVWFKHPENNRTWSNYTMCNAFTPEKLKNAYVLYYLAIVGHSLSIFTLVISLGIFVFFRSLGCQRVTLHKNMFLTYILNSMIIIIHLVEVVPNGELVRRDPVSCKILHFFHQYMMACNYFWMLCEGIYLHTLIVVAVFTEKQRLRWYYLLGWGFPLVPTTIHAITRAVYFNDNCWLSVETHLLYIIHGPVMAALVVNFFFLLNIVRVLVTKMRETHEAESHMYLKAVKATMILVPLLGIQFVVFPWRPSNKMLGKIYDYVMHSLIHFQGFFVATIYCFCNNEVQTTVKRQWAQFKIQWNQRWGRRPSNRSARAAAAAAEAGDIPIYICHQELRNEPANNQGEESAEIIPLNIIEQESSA
T2 sequence (O60896 24-148 partner): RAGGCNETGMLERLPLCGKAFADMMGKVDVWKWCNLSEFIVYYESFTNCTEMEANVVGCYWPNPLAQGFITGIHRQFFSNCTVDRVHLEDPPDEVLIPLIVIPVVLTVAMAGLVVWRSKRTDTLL

hAMY3R [2] = target: T2, hAMY3R; assay: scintillation proximity binding assay, hAMY3R membranes; design: expressed in transfected cells; host or cells: BHK tk-ts 13, transient co-transfection; membranes for the SPA, whole cells for the species-specific assays; conditions: for ratio hCTR/hAMY3R: ratio of binding IC50 values
Procedure: as §1, §2, §3, §4, §5, §6, §7, §8, §9, §10, §11, §12
as §5, with “and cultured as described above. Membranes” for “Membranes”, “buffer containing 20 mM Na-HEPES and 10 mM EDTA (pH 7.4), and” for “buffer”
as §13, §14, §15, §16, §17

[3] = Tables S12 and S14, read-out: hAMY3R pEC50 (converted)
[4] = BHK cells stably expressing hCTR+RAMP3 and CRE-luciferase, 3 h, 37 °C, 10% FBS, read-out: hAMY3R EC50
[5] = SPA binding assay, Tables S13 and S15

SMILES	IC50 (rAMY3R; SPA binding assay, Tables S13 and S15, read-out: rAMY3R pIC50 (converted)) [nM]	IC50 (rAMY3R; SPA, BHK cell membranes, 125I-rat amylin, 120 min 25 °C, read-out: rAMY3R IC50) [nM]	ratio rCTR/rAMY3R (rAMY3R)	EC50 (hAMY3R [1]; [3]) [nM]	EC50 (hAMY3R [1]; [4]) [nM]	ratio hCTR/hAMY3R (hAMY3R [1])	IC50 (hAMY3R [2]; SPA binding assay, Tables S13 and S15, read-out: hAMY3R pIC50 (converted)) [nM]	IC50 (hAMY3R [2]; SPA, BHK cell membranes, 125I-rat amylin, 120 min 25 °C, read-out: hAMY3R IC50) [nM]	ratio hCTR/hAMY3R (hAMY3R [2])	rAMY3R pIC50 (rAMY3R; [5])	hAMY3R pIC50 (hAMY3R [2]; [5])
CC[C@H](C)[C@H](NC(=O)[C@H](C)NC(=O)CNC(=O)[C@H](Cc1ccccc1)NC(=O)[C@H](CC(N)=O)NC(=O)[C@@H]1CCCN1C(=O)[C@H](CO)NC(=O)[C@H](CO)NC(=O)[C@H](Cc1c[nH]cn1)NC(=O)[C@H](CCCNC(=N)N)NC(=O)[C@H](CC(C)C)NC(=O)[C@H](Cc1ccccc1)NC(=O)[C@H](CC(N)=O)NC(=O)[C@H](C)NC(=O)[C@H](CC(C)C)NC(=O)[C@H](CCCNC(=N)N)NC(=O)[C@H](CCC(N)=O)NC(=O)[C@@H](NC(=O)[C@H](C)NC(=O)[C@@H]1CSSC[C@H](NC(=O)[C@H](CCCCN)NC(=O)CC[C@H](NC(=O)CCCCCCCCCCCCCCCCCCC(=O)O)C(=O)O)C(=O)N[C@@H](CC(N)=O)C(=O)N[C@@H]([C@@H](C)O)C(=O)N[C@@H](C)C(=O)N[C@@H]([C@@H](C)O)C(=O)N1)[C@@H](C)O)C(=O)N1CCC[C@H]1C(=O)N[C@@H](CO)C(=O)N[C@@H](CO)C(=O)N[C@H](C(=O)N1CCC[C@H]1C(=O)N[C@H](C(=O)NCC(=O)N[C@@H](CO)C(=O)N[C@@H](CCC(=O)O)C(=O)N[C@H](C(=O)N[C@@H](Cc1ccc(O)cc1)C(N)=O)[C@@H](C)O)C(C)C)[C@@H](C)O [Peptide 11] ({C20 diacid-γGlu}-KCNTATCATQRLANFLRHSSPNFGAIPSSTPVGSETY-NH2; disulfide 2-7)	1.17	1.17	44	0.186	0.186	11	0.589	0.589	20	–	–
CC[C@H](C)[C@H](NC(=O)[C@H](C)NC(=O)CNC(=O)[C@H](Cc1ccccc1)NC(=O)[C@H](CC(N)=O)NC(=O)[C@@H]1CCCN1C(=O)[C@H](CO)NC(=O)[C@H](CO)NC(=O)[C@H](Cc1c[nH]cn1)NC(=O)[C@H](CCCNC(=N)N)NC(=O)[C@H](CC(C)C)NC(=O)[C@H](Cc1ccccc1)NC(=O)[C@H](CCC(=O)O)NC(=O)[C@H](C)NC(=O)[C@H](CC(C)C)NC(=O)[C@H](CCCNC(=N)N)NC(=O)[C@H](CCC(N)=O)NC(=O)[C@@H](NC(=O)[C@H](C)NC(=O)[C@@H]1CSSC[C@H](NC(=O)[C@H](CCCCN)NC(=O)CC[C@H](NC(=O)CCCCCCCCCCCCCCCCCCC(=O)O)C(=O)O)C(=O)N[C@@H](CC(N)=O)C(=O)N[C@@H]([C@@H](C)O)C(=O)N[C@@H](C)C(=O)N[C@@H]([C@@H](C)O)C(=O)N1)[C@@H](C)O)C(=O)N1CCC[C@H]1C(=O)N[C@@H](CO)C(=O)N[C@@H](CO)C(=O)N[C@H](C(=O)N[C@@H](CC(N)=O)C(=O)N[C@H](C(=O)NCC(=O)N1CCC[C@H]1C(=O)N[C@@H](CC(N)=O)C(=O)N[C@H](C(=O)N[C@@H](Cc1ccc(O)cc1)C(N)=O)[C@@H](C)O)C(C)C)[C@@H](C)O [Peptide 12] ({C20 diacid-γGlu}-KCNTATCATQRLAEFLRHSSPNFGAIPSSTNVGPNTY-NH2; disulfide 2-7)	–	–	34	0.0468	0.047	6.7	–	–	11	9.75	–
CC[C@H](C)[C@H](NC(=O)[C@H](C)NC(=O)CNC(=O)[C@H](Cc1ccccc1)NC(=O)[C@H](CC(N)=O)NC(=O)[C@@H]1CCCN1C(=O)[C@H](CO)NC(=O)[C@H](CO)NC(=O)[C@H](Cc1c[nH]cn1)NC(=O)[C@H](CCCNC(=N)N)NC(=O)[C@H](CC(C)C)NC(=O)[C@H](Cc1ccccc1)NC(=O)[C@H](CC(N)=O)NC(=O)[C@H](C)NC(=O)[C@H](CC(C)C)NC(=O)[C@H](CCCNC(=N)N)NC(=O)[C@H](CCC(N)=O)NC(=O)[C@@H](NC(=O)[C@H](C)NC(=O)[C@@H]1CSSC[C@H](NC(=O)[C@H](CCCCN)NC(=O)CC[C@H](NC(=O)CCCCCCCCCCCCCCCCCCC(=O)O)C(=O)O)C(=O)N[C@@H](CC(N)=O)C(=O)N[C@@H]([C@@H](C)O)C(=O)N[C@@H](C)C(=O)N[C@@H]([C@@H](C)O)C(=O)N1)[C@@H](C)O)C(=O)N1CCC[C@H]1C(=O)N[C@@H](CO)C(=O)N[C@@H](CO)C(=O)N[C@H](C(=O)N[C@@H](CC(N)=O)C(=O)N[C@H](C(=O)NCC(=O)N[C@@H](CO)C(=O)N[C@@H](CCCCN)C(=O)N[C@H](C(=O)N[C@@H](Cc1ccc(O)cc1)C(N)=O)[C@@H](C)O)C(C)C)[C@@H](C)O [Peptide 13]	–	–	52	0.309	0.31	8.4	–	–	64	8.77	8.94

From PMC11284788, “NN1213 – A Potent, Long-Acting, and Selective Analog of Human Amylin” (Journal of Medicinal Chemistry, 2024)
